# ChEMBL document CHEMBL3044957, “Synthesis and biological evaluation of some N 4-aryl-substituted 5-fluoroisatin-3-thiosemicarbazones” (Med Chem Res, 2013)
# Calls of active or inactive are those of the source. The rule behind the calls is not given here.
# Assays:
# [1] = molecular target: Urease (Canavalia ensiformis) (UniProt P07374); assay: Inhibition of Canavalia ensiformis (jack bean) urease assessed as inhibition of ammonia production at 100 uM after 15 min by indophenol method
# Urease = Urease (Canavalia ensiformis, UniProt P07374); assay: Inhibition of Canavalia ensiformis (jack bean) urease assessed as inhibition of ammonia production after 15 min by indophenol method
# Urease, sequence (P07374 whole entry): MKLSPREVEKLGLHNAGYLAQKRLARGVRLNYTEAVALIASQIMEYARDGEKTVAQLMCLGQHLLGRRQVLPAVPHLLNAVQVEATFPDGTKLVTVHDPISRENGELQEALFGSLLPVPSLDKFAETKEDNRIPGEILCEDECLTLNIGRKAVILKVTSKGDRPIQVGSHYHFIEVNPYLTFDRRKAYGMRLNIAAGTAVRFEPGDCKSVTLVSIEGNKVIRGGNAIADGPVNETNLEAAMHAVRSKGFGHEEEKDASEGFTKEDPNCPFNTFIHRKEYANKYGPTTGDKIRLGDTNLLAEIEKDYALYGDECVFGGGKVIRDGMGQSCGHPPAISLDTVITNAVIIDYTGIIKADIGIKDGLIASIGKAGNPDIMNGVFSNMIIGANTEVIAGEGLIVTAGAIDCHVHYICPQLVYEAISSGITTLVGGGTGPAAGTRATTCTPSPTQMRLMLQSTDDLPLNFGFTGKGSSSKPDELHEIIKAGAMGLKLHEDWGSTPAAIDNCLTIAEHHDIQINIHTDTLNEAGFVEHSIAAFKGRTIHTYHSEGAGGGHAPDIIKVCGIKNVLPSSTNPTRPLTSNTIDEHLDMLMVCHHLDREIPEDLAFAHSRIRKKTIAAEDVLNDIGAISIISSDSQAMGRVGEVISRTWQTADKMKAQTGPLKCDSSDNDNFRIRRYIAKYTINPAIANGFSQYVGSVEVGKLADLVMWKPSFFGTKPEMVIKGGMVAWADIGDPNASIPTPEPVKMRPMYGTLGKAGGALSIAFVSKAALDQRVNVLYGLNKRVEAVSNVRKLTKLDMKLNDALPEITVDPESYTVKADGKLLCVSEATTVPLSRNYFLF
# Lemna aequinoctialis [2] = assay: Phytotoxicity against Lemna aequinoctialis assessed as growth inhibition at 500 ug/ml after 7 days relative to control; format: functional; details: 168 h, read-out: GI
# Candida albicans = assay: Growth inhibition of Candida albicans at 200 ug/ml after 7 days; format: functional; details: 168 h
# Lemna aequinoctialis [3] = assay: Phytotoxicity against Lemna aequinoctialis assessed as growth inhibition at 50 ug/ml after 7 days relative to control; format: functional; details: 168 h, read-out: GI
# Fusarium solani = assay: Growth inhibition of Fusarium solani at 200 ug/ml after 7 days; format: functional; details: 168 h
# Trichophyton longifusum = assay: Growth inhibition of Trichophyton longifusum at 200 ug/ml after 7 days; format: functional; details: 168 h
# Nakaseomyces glabratus = assay: Growth inhibition of Candida glabrata at 200 ug/ml after 7 days; format: functional; details: 168 h
# [4] = Toxicity against Artemia salina (brine shrimp) assessed as mortality after 24 hr; format: organism-based; details: in vivo, read-out: LD50
# Aspergillus flavus = assay: Growth inhibition of Aspergillus flavus at 200 ug/ml after 7 days; format: functional; details: 168 h
# [5] = molecular target: Urease (Canavalia ensiformis) (UniProt P07374); assay: Inhibition of Canavalia ensiformis (jack bean) urease assessed as inhibition of ammonia production at 200 uM after 15 min by indophenol method
# Microsporum canis = assay: Growth inhibition of Arthroderma otae at 200 ug/ml after 7 days; format: functional; details: 168 h
# Lemna aequinoctialis [6] = assay: Phytotoxicity against Lemna aequinoctialis assessed as growth inhibition at 5 ug/ml after 7 days relative to control; format: functional; details: 168 h, read-out: GI
# [7] = molecular target: Urease (Canavalia ensiformis) (UniProt P07374); assay: Inhibition of Canavalia ensiformis (jack bean) urease assessed as inhibition of ammonia production at 500 uM after 15 min by indophenol method
# Homo sapiens = organism: Homo sapiens; assay: Inhibition of […] urease-mediated ammonia production at 100 uM after 15 min by indophenol method
# Lemna aequinoctialis [8] = assay: Phytotoxicity against Lemna aequinoctialis assessed as growth inhibition at 0.015 g/ml after 7 days relative to control; format: functional
# Urease (Canavalia ensiformis), sequence (P07374 whole entry, looked up): as the sequence (P07374 whole entry) above
SMILES,inhibition [1] [%],IC50 (Urease; read-out: IC50) [µM],inhibition of growth at 500 µg/mL (Lemna aequinoctialis [2]) [%],inhibition at 200 µg/mL (Candida albicans) [%],inhibition of growth at 50 µg/mL (Lemna aequinoctialis [3]) [%],inhibition at 200 µg/mL (Fusarium solani) [%],inhibition at 200 µg/mL (Trichophyton longifusum) [%],inhibition at 200 µg/mL (Nakaseomyces glabratus) [%],LC50 at 24 h [4] [µM],inhibition at 200 µg/mL (Aspergillus flavus) [%],inhibition [5] [%],inhibition at 200 µg/mL (Microsporum canis) [%],inhibition of growth at 5 µg/mL (Lemna aequinoctialis [6]) [%],inhibition [7] [%],IC50 (Urease),inhibition (Homo sapiens),growth inhibition (GI) (Lemna aequinoctialis [8]) [%]
O=C1Nc2ccccc2/C1=N/NC(=S)Nc1ccccc1F,84.9,20.6,–,–,–,–,–,–,–,–,–,–,–,–,–,–,–
O=C1Nc2ccc(F)cc2/C1=N/NC(=S)Nc1ccccc1C(F)(F)F,–,50.5,25,0,10,0,0,0,> 52.4,15,77.3,20,5,–,–,–,–
O=C1Nc2ccc(F)cc2/C1=N/NC(=S)Nc1cc(F)cc(F)c1,–,151,15,0,10,0,0,0,107,0,–,40,0,80.2,–,–,–
O=C1Nc2ccc(F)cc2/C1=N/NC(=S)Nc1ccc(Br)cc1F,–,–,30,0,25,10,0,0,> 49.1,0,21.9,20,10,–,Not Active,–,–
O=C1Nc2ccc(F)cc2/C1=N/NC(=S)Nc1ccc(OC(F)(F)F)cc1,–,–,35,0,20,0,0,0,> 50.3,10,–,30,10,18.9,Not Active,–,–
O=C1Nc2ccccc2/C1=N/NC(=S)Nc1cc(F)cc(F)c1,38.8,–,–,–,–,–,–,–,–,–,–,–,–,–,–,–,–
O=C1Nc2ccccc2/C1=N/NC(=S)Nc1ccccc1,–,–,40,–,25,–,–,–,> 338,–,–,–,15,–,–,inactive,–
O=C1Nc2ccc(F)cc2/C1=N/NC(=S)Nc1ccc(F)cc1F,–,–,30,0,20,15,0,0,> 57.1,40,–,35,10,22.1,Not Active,–,–
C[n+]1ccc(-c2cc[n+](C)cc2)cc1,–,–,–,–,–,–,–,–,–,–,–,–,–,–,–,–,100
O=C1Nc2ccc(F)cc2/C1=N/NC(=S)Nc1cccc(C(F)(F)F)c1,–,59.9,30,0,10,25,0,0,> 52.4,30,–,30,0,92.6,–,–,–
O=C1Nc2ccccc2/C1=N/NC(=S)Nc1cccc(F)c1,57.3,50.6,–,–,–,–,–,–,–,–,–,–,–,–,–,–,–
O=C1Nc2ccccc2/C1=N/NC(=S)Nc1ccc(F)cc1F,71.9,47.6,–,–,–,–,–,–,–,–,–,–,–,–,–,–,–
NC(N)=S,–,–,–,–,–,–,–,–,–,–,–,–,–,99,–,–,–
O=C1Nc2ccc(F)cc2/C1=N/NC(=S)Nc1c(F)cccc1F,–,47.3,30,0,10,0,0,0,115,40,–,40,0,72.5,–,–,–
O=C1Nc2ccccc2/C1=N/NC(=S)Nc1cccc(C(F)(F)F)c1,78.2,20.6,–,–,–,–,–,–,–,–,–,–,–,–,–,–,–
O=C1Nc2ccccc2/C1=N/NC(=S)Nc1ccc(OC(F)(F)F)cc1,49.6,20.6,–,–,–,–,–,–,–,–,–,–,–,–,–,–,–
O=C1Nc2ccccc2/C1=N/NC(=S)Nc1ccc(C(F)(F)F)cc1,44.6,50.6,–,–,–,–,–,–,–,–,–,–,–,–,–,–,–
O=C1Nc2ccc(F)cc2/C1=N/NC(=S)Nc1ccc(C(F)(F)F)cc1,–,90.4,25,0,15,5,0,0,176,20,53.4,25,10,–,–,–,–
O=C1Nc2ccc(F)cc2/C1=N/NC(=S)Nc1ccc(F)cc1,–,–,35,0,25,10,0,0,97.9,0,–,15,10,45.6,Not Active,–,–
O=C1Nc2ccccc2/C1=N/NC(=S)Nc1ccccc1C(F)(F)F,63.1,33.1,–,–,–,–,–,–,–,–,–,–,–,–,–,–,–
O=C1Nc2ccc(F)cc2/C1=N/NC(=S)Nc1cccc(F)c1,–,45.3,30,0,25,15,0,0,121,10,79.8,25,15,–,–,–,–
O=C1Nc2ccc(F)cc2/C1=N/NC(=S)Nc1ccccc1,–,343,70,0,15,0,0,0,68.9,0,–,20,10,53,–,–,–
O=C1Nc2ccccc2/C1=N/NC(=S)Nc1c(F)cccc1F,92,33.1,–,–,–,–,–,–,–,–,–,–,–,–,–,–,–
O=C1Nc2ccc(F)cc2/C1=N/NC(=S)Nc1ccccc1F,–,37.7,35,0,25,20,0,0,279,0,–,30,20,94.6,–,–,–
